Counter-ions that a name gives are not always drawn.
Molecular target: LsrK (Salmonella typhimurium, UniProt Q8ZKQ6)
Experiment: biochemical
Assay type: biochemical, S. typhimurium
Conditions: not given

Chain of LsrK (Q8ZKQ6 whole entry): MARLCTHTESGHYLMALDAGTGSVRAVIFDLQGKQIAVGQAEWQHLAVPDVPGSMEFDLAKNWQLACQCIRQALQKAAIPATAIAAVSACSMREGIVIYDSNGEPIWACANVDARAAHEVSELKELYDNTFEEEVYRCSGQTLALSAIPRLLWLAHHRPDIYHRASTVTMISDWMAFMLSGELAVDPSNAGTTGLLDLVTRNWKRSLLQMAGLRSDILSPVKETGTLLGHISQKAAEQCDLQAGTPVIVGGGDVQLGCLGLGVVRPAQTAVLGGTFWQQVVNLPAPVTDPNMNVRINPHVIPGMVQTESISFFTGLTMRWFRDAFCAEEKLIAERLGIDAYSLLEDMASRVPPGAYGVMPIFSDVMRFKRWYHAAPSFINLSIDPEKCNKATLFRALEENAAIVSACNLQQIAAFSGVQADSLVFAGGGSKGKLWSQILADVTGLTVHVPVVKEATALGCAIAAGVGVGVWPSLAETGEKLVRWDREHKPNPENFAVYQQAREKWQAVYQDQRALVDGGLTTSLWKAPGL

Structure (SMILES) | inhibition at 50 µM [%]
NCCCCN=C(N)N [AGMATINE SULFATE] | 0
CC[C@H]1[C@@H]2C[C@H]3[C@@H]4N(C)c5ccccc5[C@]45C[C@@H]([C@H]2[C@H]5O)N3[C@@H]1O [AJMALINE] | 0
CC(N)C(=O)OC(C)(C)Cc1ccc(Cl)cc1 (centres unmarked) [ALAPROCLATE] | 1
CCCSc1ccc2nc(NC(=O)OC)[nH]c2c1 [ALBENDAZOLE] | 4
CCCCC(CC)CNC(=N)NC(=N)NCCCCCCNC(=N)NC(=N)NCC(CC)CCCC (centres unmarked) [ALEXIDINE HYDROCHLORIDE] | 146
COCCCOc1cc(C[C@@H](C[C@H](N)[C@@H](O)C[C@H](C(=O)NCC(C)(C)C(N)=O)C(C)C)C(C)C)ccc1OC [ALISKIREN HEMIFUMARATE] | 0
O=C1NC(=O)C(=O)C(=O)N1 [ALLOXAN] | 18
O=C1c2c(O)cccc2C([C@@H]2O[C@H](CO)[C@@H](O)[C@H](O)[C@H]2O)c2cc(CO)cc(O)c21 (some centres unmarked) [ALOIN] | 45
C=CCc1ccccc1OCC(O)CNC(C)C (centres unmarked) [ALPRENOLOL] | 0
C=CCSCC1Nc2cc(Cl)c(S(N)(=O)=O)cc2S(=O)(=O)N1 (centres unmarked) [ALTHIAZIDE] | 2
C=CC[C@]1(O)CC[C@H]2[C@@H]3CCC4=CC(=O)CCC4=C3C=C[C@@]21C [ALTRENOGEST] | 0
CN(C)c1nc(N(C)C)nc(N(C)C)n1 [ALTRETAMINE] | 19
CCN(CCCc1ccccc1)CCCc1ccccc1 [ALVERINE CITRATE] | 1
CC(=O)OCC(=O)[C@@]12OC3(CCCC3)O[C@@H]1C[C@H]1[C@@H]3CCC4=CC(=O)C=C[C@]4(C)[C@@]3(F)[C@@H](O)C[C@@]12C [AMCINONIDE] | 1
NCCCNCCSP(=O)(O)O [AMIFOSTINE] | 3
N=C(N)NC(=O)c1nc(Cl)c(N)nc1N [AMILORIDE HYDROCHLORIDE] | 1
NC1(C(=O)O)CC1 [AMINOCYCLOPROPANECARBOXYLIC ACID] | 1
Nc1ccc(C(=O)NCC(=O)O)cc1 [AMINOHIPPURIC ACID] | 1
Nc1ccc(C(=O)O)c(O)c1 [AMINOSALICYLATE SODIUM] | 1
CN(C)CCCO[C@@H]1[C@H]2OC(C)(C)O[C@H]2O[C@@H]1[C@H](O)CO [AMIPRILOSE] | 2
Cc1ccc(/N=C/N(C)/C=N/c2ccc(C)cc2C)c(C)c1 [AMITRAZ] | 1
C[C@@H]1[C@H](O)[C@@H](C)/C=C/C=C/C=C/C=C/C=C/C=C/C=C/[C@H](O[C@@H]2O[C@H](C)[C@@H](O)[C@H](N)[C@@H]2O)C[C@@H]2O[C@](O)(C[C@@H](O)C[C@@H](O)[C@H](O)CC[C@@H](O)C[C@@H](O)CC(=O)O[C@H]1C)C[C@H](O)[C@H]2C(=O)O [AMPHOTERICIN B] | 61
CC1(C)S[C@@H]2[C@H](NC(=O)[C@H](N)c3ccccc3)C(=O)N2[C@H]1C(=O)O [AMPICILLIN SODIUM] | 1
COc1cc(NS(C)(=O)=O)ccc1Nc1c2ccccc2nc2ccccc12 [AMSACRINE] | 1
CN1CCCCC1c1ccc(-c2cccnc2)nc1 (centres unmarked) [ANABASAMINE HYDROCHLORIDE] | 2

Structure (SMILES) | inhibition at 50 µM [%]
c1cncc([C@@H]2CCCCN2)c1 [ANABASINE HYDROCHLORIDE] | 2
N=c1ccn2c(n1)O[C@H]1[C@H](O)[C@@H](CO)O[C@H]12 [ANCITABINE HYDROCHLORIDE] | 2
C[C@]12CC[C@@H](O)C[C@@H]1CC[C@@H]1[C@@H]2CC[C@]2(C)C(=O)CC[C@@H]12 [ANDROSTERONE] | 1
COc1ccc([C@@H](C)C(=O)c2ccc(O)cc2O)cc1 [ANGOLENSIN (R)] | 1
COc1ccc2c(=O)c(CC(=O)O)coc2c1 [ANHYD[…]] | 3
c1ccc(CN(CC2=NCCN2)c2ccccc2)cc1 [ANTAZOLINE PHOSPHATE] | 1
O=C1c2c(O)cccc2Cc2cccc(O)c21 [ANTHRALIN] | 8
O=C1c2ccccc2C(=O)c2ccccc21 [ANTHRAQUINONE] | 0
COc1cc(O)cc(OC)c1OC [ANTIAROL] | 21
O=c1cc(-c2ccc(O)cc2)oc2cc(O[C@@H]3O[C@H](CO)[C@@H](O)[C@H](O)[C@H]3O[C@@H]3OC[C@](O)(CO)[C@H]3O)cc(O)c12 [APIIN] | 1
OC[C@H]1O[C@@H](Oc2ccc(O)cc2)[C@H](O)[C@@H](O)[C@@H]1O [ARBUTIN] | 2
C[C@H]1[C@@H](O)O[C@@H]2O[C@@]3(C)CC[C@H]4[C@H](C)CC[C@@H]1[C@@]24OO3 [ARTENIMOL] | 0
CCCCCCCCCCCCCCCC(=O)OC[C@H](O)[C@H]1OC(=O)C(O)=C1O [ASCORBYL PALMITATE] | 28
C[C@H]1[C@H](C)CC[C@]2(C(=O)O)CC[C@]3(C)C(=CC[C@@H]4[C@@]5(C)C[C@@H](O)[C@H](O)[C@@](C)(CO)[C@@H]5CC[C@]43C)[C@H]12 [ASIATIC ACID] | 2
CC(=O)Oc1ccccc1C(=O)O [ASPIRIN] | 0
CC1=C(/C=C/C(C)=C/C=C/C(C)=C/C=C/C=C(C)/C=C/C=C(C)/C=C/C2=C(C)C(=O)[C@@H](O)CC2(C)C)C(C)(C)C[C@H](O)C1=O [ASTAXANTHIN] | 1
O=C1C(O)=C([C@H]2CC[C@H](c3ccc(Cl)cc3)CC2)C(=O)c2ccccc21 [ATOVAQUONE] | 1
COC(=O)c1c(C)cc(OC(=O)c2c(C)cc(O)c(C=O)c2O)c(C)c1O [ATRANORIN] | 0
CN1[C@@H]2CC[C@H]1C[C@@H](OC(=O)C(CO)c1ccccc1)C2 (some centres unmarked) [ATROPINE SULFATE] | 3
C#CCCCCCCCCCCCC(O)CC(O)COC(C)=O (centres unmarked) [AVOCADYNE ACETATE] | 1
Nc1ncn([C@@H]2O[C@H](CO)[C@@H](O)[C@H]2O)c(=O)n1 [AZACITIDINE] | 9
O=C(CCCN1CCN(c2ccccn2)CC1)c1ccc(F)cc1 [AZAPERONE] | 25
[N-]=[N+]=CC(=O)OC[C@H](N)C(=O)O [AZASERINE] | 3
O=C(O)CCCCCCCC(=O)O [AZELAIC ACID] | 3

Same assay, conditions: 50 µM

Structure (SMILES) | Inhibition (%)
CNC[C@H](O)c1ccc(O)c(O)c1.O=C(O)C(O)C(O)C(=O)O [ADRENALINE BITARTRATE] | 15
O=c1ccc2cc(O[C@@H]3O[C@H](CO)[C@@H](O)[C@H](O)[C@H]3O)c(O)cc2o1 [AESCULIN] | 1
O=C(O)CCCCCCCC(O)C(O)CCCCCCO (centres unmarked) [ALEURETIC ACID] | 0
COc1cc2nc(N(C)CCCNC(=O)C3CCCO3)nc(N)c2cc1OC (centres unmarked) [ALFLUZOSIN] | 1
C=CCc1cc(OC)c2c(c1OC)OCO2 [APIOLE] | 1
COc1cc2c(cc1OC)-c1c(oc3cc(O)cc(O)c3c1=O)CO2 [APOTOXICAROL] | 1
OCC(O)C(O)C(O)CO (centres unmarked) [ARABITOL(D)] | 0
Cl.N=C(N)NCCC[C@H](N)C(=O)O [ARGININE HYDROCHLORIDE] | 1
OC[C@H]1O[C@H]([S-])[C@H](O)[C@@H](O)[C@@H]1O.[Au+] [AUROTHIOGLUCOSE] | 104
C=CCCCCCCCCCCCc1ccco1 [AVOCADENOFURAN] | 2
